In this test the test system is C. difficile. Kind of test: Addition of secondary bile acids to culture media, C. difficile growth. To be noted: bile acid added to culture media.

Molecules are shown by their SMILES.

As for `C[C@H](CCC(=O)O)[C@H]1CC[C@H]2[C@@H]3CC[C@@H]4C[C@H](O)CC[C@]4(C)[C@H]3C[C@H](O)[C@]12C` [DCA, deoxycholic acid], the “C. difficile growth inhibition in culture media” value is “inhibits c. difficile growth”.
